Test results taken from US9309242B2, “Substituted pyrido[2,3-b]pyrazines as FGFR kinase inhibitors” (priority 2011, dated 2016).
Like-named read-outs stand apart in the source and are kept apart here.

Tests used:
FGFR2 (h) = FGFR2 (h) (Homo sapiens, UniProt P21802); test: FGFR2 (enzymatic assay), TR-FRET; format: biochemical; settings: enzymatic assay, read-out: FGFR 2 pIC50 (converted)
How it was run: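 Compound (1% DMSO final) was combined with FGFR2 (h), 150 ng/ml, plus 0.4 μM ATP and 500 nM biotin-Flt3 in Mn2+-containing HEPES buffer at pH 7.5.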

KDR (h) = KDR (h) (Homo sapiens, UniProt P35968); test: KDR (VEGFR2) (enzymatic assay), TR-FRET; format: biochemical; settings: read-out: VEGFR 2 (KDR) pIC50 (converted)
Chain of KDR (h) (P35968 20-1356): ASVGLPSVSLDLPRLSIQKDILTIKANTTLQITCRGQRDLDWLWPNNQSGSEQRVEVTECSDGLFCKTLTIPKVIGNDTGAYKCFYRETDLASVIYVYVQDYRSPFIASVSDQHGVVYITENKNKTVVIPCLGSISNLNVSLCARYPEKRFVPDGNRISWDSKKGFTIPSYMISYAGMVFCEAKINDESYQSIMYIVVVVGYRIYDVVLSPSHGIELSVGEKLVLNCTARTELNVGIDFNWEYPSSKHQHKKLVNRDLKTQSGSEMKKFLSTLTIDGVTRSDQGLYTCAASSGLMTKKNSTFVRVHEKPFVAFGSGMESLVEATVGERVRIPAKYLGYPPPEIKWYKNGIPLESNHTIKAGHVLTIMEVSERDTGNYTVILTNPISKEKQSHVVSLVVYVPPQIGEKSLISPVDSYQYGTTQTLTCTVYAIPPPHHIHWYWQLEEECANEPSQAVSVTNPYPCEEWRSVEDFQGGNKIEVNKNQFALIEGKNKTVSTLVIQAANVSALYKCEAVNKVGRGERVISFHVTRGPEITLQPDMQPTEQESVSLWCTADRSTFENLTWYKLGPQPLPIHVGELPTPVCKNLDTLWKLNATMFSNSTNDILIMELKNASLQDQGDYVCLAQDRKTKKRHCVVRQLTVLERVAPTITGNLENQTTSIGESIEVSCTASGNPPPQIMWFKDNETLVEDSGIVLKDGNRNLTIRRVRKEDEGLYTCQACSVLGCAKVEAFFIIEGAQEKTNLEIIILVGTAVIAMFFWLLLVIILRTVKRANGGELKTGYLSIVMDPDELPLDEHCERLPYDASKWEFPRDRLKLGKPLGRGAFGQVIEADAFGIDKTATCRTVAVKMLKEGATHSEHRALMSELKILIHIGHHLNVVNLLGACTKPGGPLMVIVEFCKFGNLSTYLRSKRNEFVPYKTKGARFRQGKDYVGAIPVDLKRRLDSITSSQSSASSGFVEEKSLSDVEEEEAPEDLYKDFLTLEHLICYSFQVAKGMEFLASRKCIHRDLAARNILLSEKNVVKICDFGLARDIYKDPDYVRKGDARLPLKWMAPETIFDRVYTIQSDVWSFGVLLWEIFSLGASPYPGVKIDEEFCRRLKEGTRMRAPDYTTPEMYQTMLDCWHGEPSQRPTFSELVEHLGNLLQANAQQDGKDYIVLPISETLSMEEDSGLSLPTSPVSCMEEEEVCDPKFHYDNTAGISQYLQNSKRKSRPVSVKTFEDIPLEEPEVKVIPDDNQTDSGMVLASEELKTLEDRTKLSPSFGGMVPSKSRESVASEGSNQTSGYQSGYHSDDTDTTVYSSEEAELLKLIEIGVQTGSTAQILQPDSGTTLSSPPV
How it was run: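 Human KDR (150 ng/ml) was reacted with 500 nM Btn-Flt3 and 3 μM ATP in 50 mM HEPES pH 7.5, 6 mM MnCl2, 1 mM DTT, 0.1 mM Na3VO4, 0.01% Triton X-100, 1% DMSO, for 120 min at room temperature. Phosphorylation detected by TR-FRET (Eu-anti-P-Tyr/SA-XL665, 60 min), read in RFU.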

FGFR3 (h) = FGFR3 (h) (Homo sapiens, UniProt P22607); test: FGFR3 (enzymatic assay), TR-FRET; format: biochemical; settings: read-out: FGFR 3 pIC50 (converted)
Chain of FGFR3 (h) (P22607 23-806): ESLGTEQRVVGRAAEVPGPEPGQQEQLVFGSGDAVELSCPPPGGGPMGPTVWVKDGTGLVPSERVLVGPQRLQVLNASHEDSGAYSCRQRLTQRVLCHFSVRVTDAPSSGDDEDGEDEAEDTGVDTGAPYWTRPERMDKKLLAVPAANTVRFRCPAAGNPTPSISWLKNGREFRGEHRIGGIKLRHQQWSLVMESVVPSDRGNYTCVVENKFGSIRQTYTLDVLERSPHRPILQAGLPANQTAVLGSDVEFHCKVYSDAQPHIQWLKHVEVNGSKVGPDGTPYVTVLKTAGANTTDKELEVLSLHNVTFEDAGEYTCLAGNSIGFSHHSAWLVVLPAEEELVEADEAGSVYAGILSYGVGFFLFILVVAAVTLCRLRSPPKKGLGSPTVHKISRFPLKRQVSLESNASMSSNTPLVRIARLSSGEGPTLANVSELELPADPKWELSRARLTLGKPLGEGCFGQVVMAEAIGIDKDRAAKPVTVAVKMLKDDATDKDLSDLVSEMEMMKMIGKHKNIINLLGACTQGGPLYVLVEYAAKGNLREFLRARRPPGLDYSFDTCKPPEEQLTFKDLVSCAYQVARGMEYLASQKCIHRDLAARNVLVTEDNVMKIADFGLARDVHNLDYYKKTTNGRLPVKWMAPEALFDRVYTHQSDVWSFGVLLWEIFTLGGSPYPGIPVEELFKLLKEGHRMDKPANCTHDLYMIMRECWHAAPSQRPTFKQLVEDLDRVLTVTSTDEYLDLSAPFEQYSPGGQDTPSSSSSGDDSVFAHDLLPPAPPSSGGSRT
Source text: Time-Resolved Fluorescence Resonance Energy Transfer (TR-FRET) signal (ex340 nm.

[1] = test system: Ba/F3-KDR-transfected cells; test: Ba/F3-KDR (plus IL3) cellular proliferation assay, counterscreen with 10 ng/ml murine IL3; format: cell-based; settings: plus IL3 (10 ng/ml murine IL3, counterscreen); read-out: BAF3-KDR (PLUS IL3) pIC50 (converted)
How it was run: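 Ba/F3-KDR-transfected cells, 20000 per well in phenol red free RPMI-1640 with 10% FBS, exposed to compound 24 hours at 37° C, 5% CO2; Alamar Blue then added for 4 hours and fluorescence read (ex. 540 nm, em. 590 nm). Plus-IL3 counterscreen run identically with 10 ng/ml murine IL3.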

[2] = test system: Ba/F3-FGFR1-transfected cells; test: Ba/F3-FGFR1 (plus IL3) cellular proliferation assay, counterscreen with 10 ng/ml murine IL3; format: cell-based; settings: plus IL3 (10 ng/ml murine IL3, counterscreen); read-out: BAF3-FGFR1 (PLUS IL3) pIC50 (converted)
How it was run: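 Ba/F3-FGFR1 cells (20000/well) in RPMI-1640 with 10% FBS exposed to compound for 24 h at 37° C., 5% CO2, then Alamar Blue (resazurin) added for 4 h; fluorescence read at ex 540/em 590 nm. Counterscreen run identically with 10 ng/ml murine IL3.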

[3] = molecular target: T1, Ba/F3-FGFR1-transfected cells (Homo sapiens, UniProt P11362); test: Ba/F3-FGFR1 (minus IL3) cellular proliferation assay, Alamar Blue; format: cell-based
T1 construct: BAF3-FGFR1 (MIN IL3) pIC50; other: minus IL3
T1 sequence (P11362 whole entry, change not shown): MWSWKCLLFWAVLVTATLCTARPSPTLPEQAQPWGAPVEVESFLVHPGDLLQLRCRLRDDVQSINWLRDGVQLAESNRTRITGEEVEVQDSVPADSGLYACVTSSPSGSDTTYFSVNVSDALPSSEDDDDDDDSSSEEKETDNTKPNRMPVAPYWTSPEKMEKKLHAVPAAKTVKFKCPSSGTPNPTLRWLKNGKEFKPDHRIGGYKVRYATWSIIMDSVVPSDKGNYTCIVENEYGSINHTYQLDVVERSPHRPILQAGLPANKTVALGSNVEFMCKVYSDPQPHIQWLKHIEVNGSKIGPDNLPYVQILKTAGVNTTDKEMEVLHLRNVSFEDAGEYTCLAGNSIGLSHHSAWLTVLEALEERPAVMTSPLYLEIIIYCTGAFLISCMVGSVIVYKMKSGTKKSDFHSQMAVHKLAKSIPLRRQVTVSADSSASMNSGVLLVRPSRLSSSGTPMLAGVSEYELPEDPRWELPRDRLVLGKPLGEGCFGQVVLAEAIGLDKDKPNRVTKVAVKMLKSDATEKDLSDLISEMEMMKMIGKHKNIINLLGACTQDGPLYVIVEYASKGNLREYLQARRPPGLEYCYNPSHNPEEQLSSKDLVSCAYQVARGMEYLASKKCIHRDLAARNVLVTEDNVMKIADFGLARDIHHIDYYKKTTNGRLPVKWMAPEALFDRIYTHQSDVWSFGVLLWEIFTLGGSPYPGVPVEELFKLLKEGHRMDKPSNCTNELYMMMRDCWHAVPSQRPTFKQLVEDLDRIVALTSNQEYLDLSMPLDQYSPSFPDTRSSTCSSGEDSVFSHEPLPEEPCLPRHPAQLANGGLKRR
How it was run: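 Ba/F3-FGFR1 cells, 20000/well, RPMI-1640 + 10% FBS + 2 mM L-Gln; compound in DMSO; 24 h, 37 °C, 5% CO2; Alamar Blue 4 h; RFU ex 540/em 590.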

[4] = molecular target: Ba/F3-FGFR4-transfected cells (Homo sapiens, UniProt P22455); test: Ba/F3-FGFR4 cellular proliferation assay, Alamar Blue; format: cell-based
Chain of Ba/F3-FGFR4-transfected cells (P22455 whole entry, change not shown): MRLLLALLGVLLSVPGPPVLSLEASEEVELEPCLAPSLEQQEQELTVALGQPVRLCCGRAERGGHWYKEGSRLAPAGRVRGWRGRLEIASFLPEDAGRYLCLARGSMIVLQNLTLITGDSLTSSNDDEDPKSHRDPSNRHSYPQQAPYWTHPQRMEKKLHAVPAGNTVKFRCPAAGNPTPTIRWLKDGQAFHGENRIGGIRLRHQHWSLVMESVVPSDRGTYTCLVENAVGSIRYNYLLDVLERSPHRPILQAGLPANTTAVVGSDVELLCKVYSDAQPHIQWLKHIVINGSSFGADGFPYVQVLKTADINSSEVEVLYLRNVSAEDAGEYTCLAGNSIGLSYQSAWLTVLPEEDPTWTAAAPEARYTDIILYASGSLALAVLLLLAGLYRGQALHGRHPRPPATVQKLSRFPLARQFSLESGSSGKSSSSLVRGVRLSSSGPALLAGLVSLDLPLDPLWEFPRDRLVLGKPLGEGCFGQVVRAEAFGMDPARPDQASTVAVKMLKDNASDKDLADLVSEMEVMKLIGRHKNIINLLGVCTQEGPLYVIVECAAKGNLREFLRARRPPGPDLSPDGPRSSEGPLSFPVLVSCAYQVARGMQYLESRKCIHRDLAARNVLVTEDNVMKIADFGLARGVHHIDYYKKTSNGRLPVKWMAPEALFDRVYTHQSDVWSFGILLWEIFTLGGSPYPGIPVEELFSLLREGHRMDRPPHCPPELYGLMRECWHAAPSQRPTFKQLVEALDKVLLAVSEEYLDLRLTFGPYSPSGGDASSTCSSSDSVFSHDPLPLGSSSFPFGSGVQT
How it was run: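 Ba/F3-FGFR4 cells (20000/well) in phenol red-free RPMI-1640 with 10% FBS are exposed to compound for 24 h at 37 °C, 5% CO2. Alamar Blue (resazurin) is then added for 4 h and fluorescence read at ex 540/em 590 nm.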

[5] = molecular target: T2, Ba/F3-FGFR3-transfected cells (Homo sapiens, UniProt P22607); test: Ba/F3-FGFR3 (minus IL3) cellular proliferation assay, Alamar Blue; format: cell-based
T2 construct: BAF3-FGFR3 (MIN IL3) pIC50; other: minus IL3
How it was run: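 FGFR3-Ba/F3, 20000 cells/well, RPMI-1640 + 10% FBS, no phenol red; cpd in DMSO; 24 h, 37° C/5% CO2. Alamar Blue 4 h, RFU ex540/em590. Counterscreen: + murine IL3 10 ng/ml.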

FGFR4 (h) = FGFR4 (h) (Homo sapiens, UniProt P22455); test: FGFR4 (enzymatic assay), TR-FRET; format: biochemical; settings: FGFR 4 pIC50, enzymatic assay
[6] = average values if tested multiple times

Chain of FGFR2 (h) (P21802 22-821): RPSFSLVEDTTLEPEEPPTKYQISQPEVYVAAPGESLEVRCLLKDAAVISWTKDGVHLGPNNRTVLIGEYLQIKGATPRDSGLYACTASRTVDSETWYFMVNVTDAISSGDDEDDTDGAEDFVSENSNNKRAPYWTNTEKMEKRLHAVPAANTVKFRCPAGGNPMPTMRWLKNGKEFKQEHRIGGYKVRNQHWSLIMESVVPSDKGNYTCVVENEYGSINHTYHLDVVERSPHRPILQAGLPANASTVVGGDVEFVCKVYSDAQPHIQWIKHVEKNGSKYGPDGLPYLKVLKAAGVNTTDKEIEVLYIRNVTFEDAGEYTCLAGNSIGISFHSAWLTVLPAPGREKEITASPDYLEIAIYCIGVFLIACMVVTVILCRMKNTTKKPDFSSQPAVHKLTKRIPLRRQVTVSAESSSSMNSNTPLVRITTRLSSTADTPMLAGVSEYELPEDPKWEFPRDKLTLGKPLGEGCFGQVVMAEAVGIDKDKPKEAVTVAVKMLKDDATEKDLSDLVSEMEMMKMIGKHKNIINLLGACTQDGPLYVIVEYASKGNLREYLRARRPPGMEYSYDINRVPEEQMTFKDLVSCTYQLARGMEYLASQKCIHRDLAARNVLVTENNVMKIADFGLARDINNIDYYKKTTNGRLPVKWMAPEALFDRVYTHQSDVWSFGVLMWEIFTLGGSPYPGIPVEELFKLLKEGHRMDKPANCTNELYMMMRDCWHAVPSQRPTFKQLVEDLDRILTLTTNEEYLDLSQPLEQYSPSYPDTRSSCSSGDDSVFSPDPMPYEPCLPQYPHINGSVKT

SMILES: COc1cc(OC)c(F)c(N(CC2COC(=O)N2)c2ccc3ncc(-c4cnn(C)c4)nc3n2)c1 (stereo not drawn) [Compound 124]
- IC50 (FGFR2 (h)): 2.75 nM
- IC50 (KDR (h)): 60.3 nM
- IC50 (FGFR3 (h)): 1.55 nM
- IC50 [1]: > 10000 nM
- IC50 [2]: > 10000 nM
- BAF3-FGFR1 (MIN IL3) pIC50 [3]: ~7.16
- BAF3-FGFR4 pIC50 [4]: ~6.64
- BAF3-FGFR3 (MIN IL3) pIC50 [5]: ~7.16
- IC50 (FGFR4 (h)): 4.27 nM

SMILES: COc1cc(/N=c2\ccc3ncc(-c4cnn(C)c4)nc3n2CCNC(C)C)c(F)c(OC)c1 [Compound 37]
- IC50 (FGFR2 (h); [6]): 4.47 nM
- IC50 (KDR (h); [6]): 45.7 nM
- IC50 (FGFR3 (h); [6]): 8.71 nM
- IC50 [1]: > 10000 nM
- IC50 [2]: > 10000 nM
- BAF3-FGFR1 (MIN IL3) pIC50 [3]: 7.78
- BAF3-FGFR4 pIC50 [4]: 6.78
- BAF3-FGFR3 (MIN IL3) pIC50 [5]: ~7.65
- IC50 (FGFR4 (h); [6]): 15.5 nM
